This is an account of results in publication PMC6017200, “Inhibition of Cytochrome P450 Activities by Extracts of Hyptis verticillata Jacq.: Assessment for Potential HERB-Drug Interactions” (Molecules : A Journal of Synthetic Chemistry and Natural …, 2018).

Data set [1] is described as follows: DPPH radical scavenging antioxidant assay. The following applies: 0.097 to 50 µg/mL in methanol, thirty-minute incubation, 517 nm. On the procedure:
The 1,1-diphenyl-2-picrylhydrazyl (DPPH) assay was used to measure the antioxidant capacity of four different extracts of the aerial parts of H. verticillata (Figure 2). The reduction of DPPH to hydrazine produces a colour change from purple to yellow, which is measured spectrophotometrically and compared with the known antioxidant, ascorbic acid, as described in the Materials and Methods section.
Figure 2 (A) DPPH antioxidant assay for H. verticillata extracts. […] Positive control activity was determined in the presence of varying concentrations of known antioxidant, ascorbic acid, ranging from 0.097 to 50 µg/mL. Data are expressed as Mean Percentage Antioxidant Activity (% Inhibition of DPPH) for duplicate assays for at least two independent experiments. (B) Summary of results. […]
The DPPH radical scavenging capacity of extracts of H. verticillata were evaluated by the method described by Williams et al.. The electron-donating ability of each extract, at varying concentrations, was measured colourimetrically through the bleaching of purple-coloured MeOH solution of DPPH. […]
Each test extract, as well as the ascorbic acid control, was made up in methanol to a starting concentration of 50 µg/mL and serially diluted in ninety-six well microtitre plates. […] After a thirty-minute incubation period at room temperature, the absorbance was read against a blank, comprising methanol, at 517 nm. […]
For orientation: Loss of DPPH colour is used to gauge radical scavenging.

In data set [2] the target is T1, human CYP1A2 (Homo sapiens, UniProt P05177).
T1 sequence (P05177 1-516): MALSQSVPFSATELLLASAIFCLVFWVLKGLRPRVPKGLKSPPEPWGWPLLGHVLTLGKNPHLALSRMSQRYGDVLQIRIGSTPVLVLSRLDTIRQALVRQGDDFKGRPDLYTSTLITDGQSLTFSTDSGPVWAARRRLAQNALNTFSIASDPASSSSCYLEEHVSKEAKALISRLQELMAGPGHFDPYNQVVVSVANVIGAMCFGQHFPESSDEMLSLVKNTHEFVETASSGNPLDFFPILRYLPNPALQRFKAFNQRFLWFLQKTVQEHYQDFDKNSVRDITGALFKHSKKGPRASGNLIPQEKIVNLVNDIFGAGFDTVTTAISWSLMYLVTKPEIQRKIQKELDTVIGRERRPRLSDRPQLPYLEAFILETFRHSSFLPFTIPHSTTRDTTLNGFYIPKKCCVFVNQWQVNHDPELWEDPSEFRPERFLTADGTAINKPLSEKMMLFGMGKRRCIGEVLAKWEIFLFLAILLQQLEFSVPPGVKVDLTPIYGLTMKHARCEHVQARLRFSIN
Nature of the data set: biochemical. The method, then: Escherichia coli membranes expressing human CYP1A1, CYP1A2, CYP1B1, CYP3A4, and CYP2D6, co-expressed with CYP reductase, were purchased from Cypex Ltd. (Dundee, UK).
The following methodology was developed by Crespi et al. and adapted by Shields et al. and Murray et al. to screen natural products for cytochrome P450 inhibition potential with a particular emphasis on the P450 enzymes, CYPs 1A1, 1A2, 1B1, 3A4 and 2D6. Plant extracts and various phytochemicals were evaluated for their ability to inhibit the catalytic activity of human cytochrome P450 enzymes by means of high throughput fluorometric inhibition assays conducted in 96 well microtitre plates as described by Crespi et al., BD Gentest and Murray et al..
7-Ethoxy-3-cyanocoumarin (CEC) was used as a substrate for detecting the activities of CYPs 1A1, and 1A2, 7-ethoxyresorufin (ERes) for CYP1B1, 7-benzyloxy-4-trifluoromethylcoumarin (BFC) for CYP3A4, and 3-[2-(N,N-diethyl-N-methylammonium)-ethyl]-7-methoxy-4-methylcoumarin (AMMC) for CYP2D6. The reactions were monitored fluorometrically at 37 °C, using an Eclipse Fluorescence Spectrophotometer (Varian Cary, Palo Alto, CA, USA).
The data listed represent average values from a minimum of two experiments run in triplicate: % Enzyme activity = [Min + (Max − Min)/(1+10^((LogIC50^− x) × p))] where Min and Max are the minimal and maximal observed effects, respectively; x is the concentration of test agent; EC50 is the concentration yielding half-maximal response (i.e., IC50); and p is the slope parameter.

The subject of data set [3] is CYP3A4. As to conditions: cited from earlier work; for IC50: read-out: IC50 Value, reported CYP3A4 inhibition.
The subject of data set [4] is CYP2D6. The following applies: read-out: IC50 Value, reported CYP2D6 inhibition, cited from earlier work.
For data set [5], the system named is CYP2C9. Further details: method as in PMID 21276781. As to conditions: read-out: IC50 Value, reported CYP2C9 inhibition; cited from earlier work.
The test system of data set [6] is CYP2C8/C9/C19. The following applies: human liver microsomes; read-out: IC50 Value, reported CYP2C8/C9/C19 inhibition; cited from earlier work. Background: Microsomes from liver hold many membrane-bound enzymes, among them those of drug oxidation.
Data set [7] concerns CYP1A2. The following applies: human liver microsomes, read-out: IC50 Value, reported CYP1A2 inhibition, cited from earlier work.
On the set-up of data set [8]: method as in PMID 24413832. As to conditions: aerial dried samples in ethanol; cited from earlier work.
Setting [9] is: recombinant human CYP1A2, individual phytochemicals.

≈ marks a conversion by molar mass, not a printed value. Entries after “also recorded” stand apart in the source; their conditions may differ. Read-outs that look alike come from different tables or passages of the source.

Regarding `O=C1O[C@H]([C@@H](O)CO)C(O)=C1O` [Ascorbic acid], the results for the “IC50, DPPH antioxidant assay” value in data set [1] and in data set [1] (listed as ascorbic acid) were 1.32 ± 0.0 µg/mL (≈ 7.49 µM) and 1.3 µg/mL (≈ 7.38 µM), respectively.

The compound `COc1cc(C[C@H]2C(=O)OC[C@@H]2Cc2ccc3c(c2)OCO3)cc(OC)c1OC` [(-)-Yatein] displayed an IC50 in data set [2] of 71.9 ± 1.8 µM.

In the case of `COc1cc([C@@H]2c3cc4c(cc3[C@H](O)[C@H]3COC(=O)[C@H]23)OCO4)cc(OC)c1O` [4′-Demethylpodophyllotoxin], the “IC50, CYP1A2 activity” value in data set [2] (setting [9]) is reported as “No inhibition”; in data set [2] (recombinant human CYP1A2, individual phytochemicals, listed as 4-demethylpodophyllotoxin), “no inhibition”; in data set [2] (recombinant human CYP1A2, individual phytochemicals, listed as 4′-demethylpodophyllotoxin), “no impact”.

Turning to `C=C1CCC(C(C)C)C2C=C(C)C(=O)CC12` (stereo not drawn) [Cadina-4,10(15)-dien-3-one], the IC50 in data set [2] (read-out: IC50, CYP1A2 activity, recombinant human CYP1A2, individual phytochemicals) is more than 500 µM.

Consider `COc1cc([C@@H]2c3cc4c(cc3[C@H](O)[C@H]3COC(=O)[C@H]23)OCO4)cc(OC)c1OC` [Podophyllotoxin], for which the “IC50, CYP1A2 activity” value was “No inhibition” in data set [2] (setting [9]) and “no impact; also recorded: no inhibition” in data set [2] (recombinant human CYP1A2, individual phytochemicals, listed as podophyllotoxin).

On to `O=C(/C=C/c1ccc(O)c(O)c1)O[C@H](Cc1ccc(O)c(O)c1)C(=O)O` [Rosmarinic acid], for which the “IC50 Value, reported CYP3A4 inhibition” value in data set [3] is “No impact”. Besides, the IC50 was 241 µM in data set [3], more than 500 µM in data set [4] and 319 µM in data set [5].

Turning to `CC1(C)CC[C@]2(C(=O)O)CC[C@]3(C)C(=CC[C@@H]4[C@@]5(C)CC[C@H](O)C(C)(C)[C@@H]5CC[C@]43C)[C@@H]2C1` [Oleanolic acid], the IC50 is more than 100 µM in data set [2]; […] in data set [3] (human liver microsomes); more than 500 µM in data set [6]; more than 500 µM in data set [4] (human liver microsomes); more than 100 µM in data set [7] (listed as oleanolic); 144 µM in data set [7].

`C[C@H]1[C@H](C)CC[C@]2(C(=O)O)CC[C@]3(C)C(=CC[C@@H]4[C@@]5(C)CC[C@H](O)C(C)(C)[C@@H]5CC[C@]43C)[C@H]12` [Ursolic acid] gave an IC50 in data set [2] of more than 100 µM.

For the compound `Cc1c(C)c2c(c(C)c1O)CCC(C)(C(=O)O)O2` (stereo not drawn) [Trolox], the “IC50, DPPH assay” value in data set [8] is listed as 1.99 µg/mL (≈ 7.95 µM).
